Test results: BindingDB's records for patent US20240317745 (Humanwell Pharmaceutical US, 2024)

The compounds below were run against Sigma non-opioid intracellular receptor 1 (Cavia porcellus, UniProt Q60492) (assay: Binding Affinity Assay).
Method: An appropriate amount of homogenization buffer was added to the prepared membrane, and was dispersed into a suspension using a homogenizer, protein concentration was measured to be 4 mg/ml. 100 micrograms of protein were added to each well of a 96-well plate, with a volume of 90 μl. […] [3H]-(+)-pentazocine (Perkin-Elmer, Cat #NET1056250UC) was added to each well (final concentration of 10 nM). The 96-well plate was incubated in a constant temperature water bath (25° C., 180 minutes). […] After washing, the samples were dried in a 37° C. oven.

Sequence of Sigma non-opioid intracellular receptor 1 (Q60492 whole entry): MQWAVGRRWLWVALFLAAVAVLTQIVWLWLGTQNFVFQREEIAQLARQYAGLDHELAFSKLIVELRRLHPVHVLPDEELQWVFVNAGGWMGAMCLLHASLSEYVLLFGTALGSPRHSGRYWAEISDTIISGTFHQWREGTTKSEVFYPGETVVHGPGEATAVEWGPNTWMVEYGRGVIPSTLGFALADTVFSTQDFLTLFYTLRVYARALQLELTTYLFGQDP

Structure (SMILES)	Ki
Fc1ccc(-c2cc(COCCN3CCOCC3)on2)cc1F [US20240317745, Compound 1]	80.3 nM
OC1CCN(Cc2cc(-c3ccc(F)c(F)c3)no2)CC1 [US20240317745, Compound 37]	308 nM
OC1CCN(CCOCc2cc(-c3ccc(Cl)c(Cl)c3)no2)CC1 [US20240317745, Compound 65]	39.6 nM
Clc1ccc(-c2noc(COCCN3CCOCC3)c2Br)cc1Cl [US20240317745, Compound 74]	84.4 nM
